Results reported in patent publication US11548888B2, “KRas G12C inhibitors” (Mirati Therapeutics, Inc., priority 2019, dated 2023).

Biological target: T1, KRas G12C (Homo sapiens, UniProt P01116, G12C)
T1 construct: NCI-H358 cells (ATCC CRL-5807) express KRas G12C
Test: Inhibition of KRas G12C-dependent cell growth: Phospho-ERK in NCI-H358 cells
Type: cell-based
Conditions: NCI-H358 cells expressing KRas G12C; Phospho-ERK (Thr202/Tyr204) normalized to GAPDH; 3 hours compound; 4 parameter fit
Procedure, shortened: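 Phospho-ERK read-out in KRas G12C-expressing NCI-H358 cells after 3 h compound treatment (final DMSO 0.5%), by in-cell infrared immunodetection. Signal normalized to GAPDH and to DMSO controls. 4-parameter curve fit gave IC50.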

T1 sequence (P01116 1-188 isoform P01116-2 G12C): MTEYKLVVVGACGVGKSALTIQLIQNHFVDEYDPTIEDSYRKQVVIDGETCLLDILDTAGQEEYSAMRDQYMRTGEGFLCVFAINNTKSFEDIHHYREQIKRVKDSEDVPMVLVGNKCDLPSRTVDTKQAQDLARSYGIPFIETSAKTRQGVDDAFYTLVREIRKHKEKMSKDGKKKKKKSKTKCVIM

| SMILES | IC50 |
| --- | --- |
| C=CC(=O)N1CC[C@@H]2[C@H]1CN2c1nc(OC(C)C)nc2c(F)c(-c3cccc4ccc(F)c(Cl)c34)ncc12 [Example 270] | 3780 nM |
| C=CC(=O)N1CC[C@@H]2[C@H]1[C@@H](C)N2c1ncnc2c(F)c(-c3cccc4ccc(F)c(Cl)c34)ncc12 [Example 279] | 408 nM |
| C=C(F)C(=O)N1CCN(c2nc(OC[C@@H]3CCCN3C)nc3c(F)c(-c4c(O)cccc4F)ncc23)C[C@@H]1CC#N [Example 81] | 1100 nM |
| C=C(F)C(=O)N1CCN(c2nc(OCCCN3C[C@@H]4C[C@H]3CO4)nc3c(F)c(-c4cccc5cccc(Cl)c45)ncc23)C[C@@H]1CC#N [Example 29, 2-[(2S)-4-[7-(8-chloro-1-naphthyl)-8-fluoro-2-[3-[(1S,4S)-2-oxa-5-azabicyclo[2.2.1]heptan-5-yl]propoxy]pyrido[4,3-d]pyrimidin-4-yl]-1-(2-fluoroprop-2-enoyl)piperazin-2-yl]acetonitrile] | 85 nM |
| C=CC(=O)N1CC[C@@H]2[C@H]1CN2c1ncnc2c(F)c(-c3cncc4cccc(Cl)c34)ncc12 [Example 251] | 799 nM |
| C=CC(=O)N1CC[C@@H]2[C@H]1CN2c1ncnc2c(F)c(-c3cccc4cccc(Cl)c34)ncc12 [Example 284] | 557 nM |

Now those with a lower IC50, led by results:

| IC50 | SMILES |
| --- | --- |
| 13 nM | COC/C=C/C(=O)N1CCN(c2nc(OC[C@@H]3CCCN3C)nc3c(F)c(-c4cccc5cccc(Cl)c45)ncc23)C[C@@H]1CC#N [Example 78] |
| 40 nM | C=CC(=O)N1CC[C@@H]2[C@H]1CN2c1nc(OC[C@@H]2CCCN2C)nc2c(F)c(-c3cc(O)cc4cccc(Cl)c34)ncc12 [Example 289, 1-((1R, 5R)-6-(7-(8-chloro-3-hydroxynaphthalen-1-yl)-8-fluoro-2-(((S)-1-methylpyrrolidin-2-yl)methoxy)pyrido[4,3-d]pyrimidin-4-yl)-2,6-diazabicyclo[3.2.0]heptan-2-yl)prop-2-en-1-one] |
| 63 nM | C=C(F)C(=O)N1CCN(c2nc(OC[C@@H]3CCCN3C(C)C)nc3c(F)c(-c4cccc5ccc(F)c(Cl)c45)ncc23)C[C@@H]1CC#N [Example 121] |
| 59 nM | Cc1cccc2cccc(-c3ncc4c(N5CCN(C(=O)/C=C/CF)[C@@H](CC#N)C5)nc(OC[C@@H]5C[C@@H](F)CN5C)nc4c3F)c12 [Example 17, 2-[(2S)-1-[(E)-4-fluorobut-2-enoyl]-4-[8-fluoro-2-[[(2S,4R)-4-fluoro-1-methyl-pyrrolidin-2-yl]methoxy]-7-(8-methyl-1-naphthyl)pyrido[4,3-d]pyrimidin-4-yl]piperazin-2-yl]acetonitrile] |
| 51 nM | C=C(F)C(=O)N1CCN(c2nc(OC[C@H]3[C@@H](F)CCN3C)nc3c(F)c(-c4cccc5ccc(F)c(Cl)c45)ncc23)C[C@@H]1CC#N [Example 177] |
